Results: publication PMC10196118, “Evidence for broad cross-reactivity of the SARS-CoV-2 NSP12-directed CD4^+ T-cell response with pre-primed responses directed against common cold coronaviruses” (Frontiers in Immunology, 2023)

Test system: pre-cultured PBMCs (NSP12-specific T cells)
Experiment: IFN-γ ELISpot with single 15-mer peptides after 11–13 days in vitro peptide-pool T-cell expansion
Format: cell-based, human
Conditions: for peptide-specific response, donor HH-N12-18, post COVID-19 / peptide-specific response, donor HH-N12-18, pre COVID-19 / peptide-specific response, donor HH-N12-34, post COVID-19 / peptide-specific response, donor HH-N12-34, pre COVID-19 / peptide-specific response, donor HH-N12-35, post COVID-19 / peptide-specific response, donor HH-N12-35, pre COVID-19 / peptide-specific response, donor HH-N12-36, post COVID-19 / peptide-specific response, donor HH-N12-36, pre COVID-19 / peptide-specific response, donor HH-N12-37, post COVID-19 / peptide-specific response, donor HH-N12-37, pre COVID-19: single NSP12 15-mer peptides
[1] = donor HH-N12-18, sample post COVID-19
[2] = donor HH-N12-18, sample pre COVID-19
[3] = donor HH-N12-34, sample post COVID-19
[4] = donor HH-N12-34, sample pre COVID-19
[5] = donor HH-N12-35, sample post COVID-19
[6] = donor HH-N12-35, sample pre COVID-19
[7] = donor HH-N12-36, sample post COVID-19
[8] = donor HH-N12-36, sample pre COVID-19
[9] = donor HH-N12-37, sample post COVID-19
[10] = donor HH-N12-37, sample pre COVID-19

| Sequence | peptide-specific response, donor HH-N12-18, post COVID-19 [1] | peptide-specific response, donor HH-N12-18, pre COVID-19 [2] | peptide-specific response, donor HH-N12-34, post COVID-19 [3] | peptide-specific response, donor HH-N12-34, pre COVID-19 [4] | peptide-specific response, donor HH-N12-35, post COVID-19 [5] | peptide-specific response, donor HH-N12-35, pre COVID-19 [6] | peptide-specific response, donor HH-N12-36, post COVID-19 [7] | peptide-specific response, donor HH-N12-36, pre COVID-19 [8] | peptide-specific response, donor HH-N12-37, post COVID-19 [9] | peptide-specific response, donor HH-N12-37, pre COVID-19 [10] | peptide-specific T-cell response, donor HH-N12-18, post COVID-19 (donor HH-N12-18, sample post COVID-19, single NSP12 15-mer peptide, 0 = no response) | peptide-specific T-cell response, donor HH-N12-18, pre COVID-19 (donor HH-N12-18, sample pre COVID-19, single NSP12 15-mer peptide, 0 = no response) | peptide-specific T-cell response, donor HH-N12-34, post COVID-19 (donor HH-N12-34, sample post COVID-19, single NSP12 15-mer peptide, 0 = no response) | peptide-specific T-cell response, donor HH-N12-34, pre COVID-19 (donor HH-N12-34, sample pre COVID-19, single NSP12 15-mer peptide, 0 = no response) | peptide-specific T-cell response, donor HH-N12-35, post COVID-19 (donor HH-N12-35, sample post COVID-19, single NSP12 15-mer peptide, 0 = no response) | peptide-specific T-cell response, donor HH-N12-35, pre COVID-19 (donor HH-N12-35, sample pre COVID-19, single NSP12 15-mer peptide, 0 = no response) | peptide-specific T-cell response, donor HH-N12-36, post COVID-19 (donor HH-N12-36, sample post COVID-19, single NSP12 15-mer peptide, 0 = no response) | peptide-specific T-cell response, donor HH-N12-36, pre COVID-19 (donor HH-N12-36, sample pre COVID-19, single NSP12 15-mer peptide, 0 = no response) | peptide-specific T-cell response, donor HH-N12-37, post COVID-19 (donor HH-N12-37, sample post COVID-19, single NSP12 15-mer peptide, 0 = no response) | peptide-specific T-cell response, donor HH-N12-37, pre COVID-19 (donor HH-N12-37, sample pre COVID-19, single NSP12 15-mer peptide, 0 = no response) |
| --- | --- | --- | --- | --- | --- | --- | --- | --- | --- | --- | --- | --- | --- | --- | --- | --- | --- | --- | --- | --- |
| IYNLLKDCPAVAKHD [compound 18] | 0 | 0 | 0 | 0 | 0 | 0 | 0 | 0 | 0.023 | 0 | – | – | – | – | – | – | – | – | – | – |
| PNCVNCLDDRCILHC [compound 60] | 0 | 0 | 0 | 0 | 0 | 0 | 0.022 | 0 | 0 | 0 | – | – | – | – | – | – | – | – | – | – |
| KLFDRYFKYWDQTYH [compound 57] | 0 | 0 | 0 | 0 | 0 | 0 | 0.029 | 0 | 0 | 0 | – | – | – | – | – | – | – | – | – | – |
| VAKHDFFKFRIDGDM [compound 20] | 0 | 0 | 0 | 0 | 0 | 0 | 0 | 0 | 0 | 0 | – | – | – | – | – | – | – | – | – | – |
| TPGSGVPVVDSYYSL [compound 46] | 0 | 0 | 0 | 0 | 0 | 0 | 0 | 0 | 0 | 0 | – | – | – | – | – | – | – | – | – | – |
| VASIKNFKSVLYYQN [compound 156] | – | – | – | – | – | – | – | – | – | – | 0 | 0 | 0.025 | 0 | 0 | 0 | 0 | 0 | 0 | 0 |
| WYDFGDFIQTTPGSG [compound 44] | 0 | 0 | 0 | 0 | 0 | 0 | 0 | 0 | 0 | 0.05 | – | – | – | – | – | – | – | – | – | – |
| LTKPYIKWDLLKYDF [compound 53] | 0.021 | 0.02 | 0 | 0 | 0 | 0 | 0 | 0 | 0 | 0 | – | – | – | – | – | – | – | – | – | – |
| QFCDAMRNAGIVGVL [compound 39] | 0 | 0 | 0 | 0 | 0 | 0 | 0 | 0 | 0 | 0 | – | – | – | – | – | – | – | – | – | – |
| TNCCRFQEKDEDDNL [compound 11] | 0 | 0.035 | 0 | 0 | 0 | 0 | 0 | 0 | 0 | 0 | – | – | – | – | – | – | – | – | – | – |
| EDDNLIDSYFVVKRH [compound 13] | 0 | 0 | 0 | 0 | 0 | 0 | 0 | 0 | 0 | 0 | – | – | – | – | – | – | – | – | – | – |
| SADAQSFLNRVCGVS [compound 1] | 0 | 0 | 0 | 0 | 0 | 0 | 0.037 | 0 | 0 | 0 | – | – | – | – | – | – | – | – | – | – |
| TEERLKLFDRYFKYW [compound 56] | 0 | 0 | 0 | 0 | 0 | 0.04 | 0.022 | 0 | 0 | 0 | – | – | – | – | – | – | – | – | – | – |
| FQEKDEDDNLIDSYF [compound 12] | 0 | 0 | 0 | 0 | 0 | 0 | 0 | 0 | 0 | 0 | – | – | – | – | – | – | – | – | – | – |
| FFKFRIDGDMVPHIS [compound 21] | 0 | 0 | 0 | 0 | 0 | 0 | 0 | 0 | 0 | 0 | – | – | – | – | – | – | – | – | – | – |
| IDSYFVVKRHTFSNY [compound 14] | 0 | 0 | 0 | 0 | 0 | 0 | 0 | 0 | 0 | 0 | – | – | – | – | – | – | – | – | – | – |
| VPVVDSYYSLLMPIL [compound 47] | 0.082 | 0 | 0 | 0 | 0.02 | 0 | 0 | 0 | 0 | 0 | – | – | – | – | – | – | – | – | – | – |
